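Values below derive from 48-hour exposures of cells grown in 96-well plates, with endpoints linearly interpolated between the two concentrations bracketing the appropriate inhibition level. Abbreviation: GI50, concentration required for 50% inhibition of growth. TGI denotes the concentration required for complete inhibition of growth.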
Experiments:
Assay in all cases: NCI anticancer screen, dose series, 48 h
[1] = tested on: 786-0 renal
[2] = tested on: A498 renal
[3] = tested on: A549 NSCLC
[4] = tested on: ACHN renal
[5] = tested on: BT-549 breast
[6] = tested on: CAKI-1 renal
[7] = tested on: CCRF-CEM leukemia
[8] = tested on: COLO 205 colon
[9] = tested on: DU-145 prostate
[10] = tested on: EKVX NSCLC
[11] = tested on: HCC-2998 colon
[12] = tested on: HCT-116 colon
[13] = tested on: HCT-15 colon
[14] = tested on: HL-60(TB) leukemia
[15] = tested on: HOP-62 NSCLC
[16] = tested on: HOP-92 NSCLC
[17] = tested on: HS 578T breast
[18] = tested on: HT29 colon
[19] = tested on: IGROV1 ovarian
[20] = tested on: K-562 leukemia
[21] = tested on: KM12 colon
[22] = tested on: LOX IMVI melanoma
[23] = tested on: M14 melanoma
[24] = tested on: MALME-3M melanoma
[25] = tested on: MCF7 breast
[26] = tested on: MDA-MB-231 breast
[27] = tested on: MDA-MB-435
[28] = tested on: MOLT-4 leukemia
[29] = tested on: NCI-H226 lung
[30] = tested on: NCI-H23 lung
[31] = tested on: NCI-H460 lung
[32] = tested on: NCI-H522 lung
[33] = tested on: NCI/ADR-RES ovarian
[34] = tested on: OVCAR-3 ovarian
[35] = tested on: OVCAR-4 ovarian
[36] = tested on: OVCAR-5 ovarian
[37] = tested on: OVCAR-8 ovarian
[38] = tested on: PC-3 prostate
[39] = tested on: RPMI-8226 leukemia
[40] = tested on: RXF 393 renal
[41] = tested on: SF-268 CNS
[42] = tested on: SF-295 CNS
[43] = tested on: SF-539 CNS
[44] = tested on: SK-MEL-2 melanoma
[45] = tested on: SK-MEL-28 melanoma
[46] = tested on: SK-MEL-5 melanoma
[47] = tested on: SK-OV-3 ovarian
[48] = tested on: SN12C renal
[49] = tested on: SNB-19 CNS
[50] = tested on: SNB-75 CNS
[51] = tested on: SW-620 colon
[52] = tested on: TK-10 renal
[53] = tested on: U251 CNS
[54] = tested on: UACC-257 melanoma
[55] = tested on: UACC-62 melanoma
[56] = tested on: UO-31 renal

## COc1ccc(/C(C)=C(\c2ccc(Cl)cc2)c2ccc(OCCN3CCCC3)cc2)cc1
[1]
  GI50: 2.43 µM
  TGI: 6.85 µM
[2]
  GI50: 4.02 µM
  TGI: 8.38 µM
[3]
  GI50: 3.97 µM
  TGI: 8.43 µM
[4]
  GI50: 5.1 µM
  TGI: 9.62 µM
[5]
  GI50: 3.82 µM
  TGI: 8.09 µM
[6]
  GI50: 4.85 µM
  TGI: 9.29 µM
[7]
  GI50: 3.79 µM
  TGI: 11.4 µM
[8]
  GI50: 3.57 µM
  TGI: 7.74 µM
[9]
  GI50: 4.89 µM
  TGI: 9.4 µM
[10]
  GI50: 2.97 µM
  TGI: 7.3 µM
[11]
  GI50: 3.06 µM
  TGI: 7.41 µM
[12]
  GI50: 1.55 µM
  TGI: 5.78 µM
[13]
  GI50: 1.09 µM
  TGI: 4.35 µM
[14]
  GI50: 4.57 µM
  TGI: 10.9 µM
[15]
  GI50: 4.68 µM
  TGI: 9.03 µM
[16]
  GI50: 4.17 µM
  TGI: 8.7 µM
[17]
  GI50: 4.71 µM
  TGI: 11.8 µM
[18]
  GI50: 1.15 µM
  TGI: 4.08 µM
[19]
  GI50: 4.13 µM
  TGI: 8.91 µM
[20]
  GI50: 1.25 µM
  TGI: 7.23 µM
[21]
  GI50: 1.98 µM
  TGI: 6.6 µM
[22]
  GI50: 1.51 µM
  TGI: 5.84 µM
[23]
  GI50: 0.752 µM
  TGI: 1.95 µM
[24]
  GI50: 2.72 µM
  TGI: 7.61 µM
[25]
  GI50: 0.887 µM
  TGI: 5.83 µM
[26]
  GI50: 3.64 µM
  TGI: 7.8 µM
[27]
  GI50: 1.84 µM
  TGI: 6.14 µM
[28]
  GI50: 3.88 µM
  TGI: 10.9 µM
[29]
  GI50: 5.54 µM
  TGI: 11.6 µM
[30]
  GI50: 4.29 µM
  TGI: 8.98 µM
[31]
  GI50: 3.36 µM
  TGI: 7.46 µM
[32]
  GI50: 4.39 µM
  TGI: 9.11 µM
[33]
  GI50: 4.54 µM
  TGI: 9.36 µM
[34]
  GI50: 5.16 µM
  TGI: 9.79 µM
[35]
  GI50: 3.61 µM
  TGI: 7.64 µM
[36]
  GI50: 4.32 µM
  TGI: 8.65 µM
[37]
  GI50: 5.2 µM
  TGI: 10.2 µM
[38]
  GI50: 3.39 µM
  TGI: 7.52 µM
[39]
  GI50: 3.66 µM
  TGI: 10 µM
[40]
  GI50: 3.39 µM
  TGI: 7.93 µM
[41]
  GI50: 4.73 µM
  TGI: 9.79 µM
[42]
  GI50: 3.23 µM
  TGI: 7.25 µM
[43]
  GI50: 4.32 µM
  TGI: 8.59 µM
[44]
  GI50: 6.45 µM
  TGI: 11.6 µM
[45]
  GI50: 3.52 µM
  TGI: 7.54 µM
[46]
  GI50: 1.26 µM
  TGI: 4.64 µM
[47]
  GI50: 6.03 µM
  TGI: 10.7 µM
[48]
  GI50: 4.9 µM
  TGI: 9.63 µM
[49]
  GI50: 4.54 µM
  TGI: 9.09 µM
[50]
  GI50: 4.29 µM
  TGI: 8.58 µM
[51]
  GI50: 3.04 µM
  TGI: 7.33 µM
[52]
  GI50: 5.49 µM
  TGI: 10.4 µM
[53]
  GI50: 3.9 µM
  TGI: 8.3 µM
[54]
  GI50: 4.6 µM
  TGI: 9.24 µM
[55]
  GI50: 2.15 µM
  TGI: 6.53 µM
[56]
  GI50: 2.88 µM
  TGI: 7.12 µM
